Among the data in ChEMBL document CHEMBL1140861, “Short antisense oligonucleotides with novel 2'-4' conformationaly restricted nucleoside analogues show improved potency without increased toxicity in animals” (J Med Chem, 2009) are Activity values, retold here.

Series [1] deals with Mus musculus. Kind of series: Hepatotoxicity in BALB/c mouse assessed as increase in liver ALT level at 60 mg/kg, ip after 72 hrs. Format: toxicity, organism-based. On the set-up: dose 60 mg/kg, route intraperitoneal. Particulars: in vivo.
For series [2], the system named is Mus musculus. Kind of series: Reduction of PTEN mRNA level in BALB/c mouse liver at 37 mg/kg, ip after 72 hrs. Format: functional, organism-based. On the set-up: dose 37 mg/kg.
Series [3] concerns Mus musculus. As to the kind of experiment: Reduction of PTEN mRNA level in BALB/c mouse liver at 60 mg/kg, ip after 72 hrs. Format: functional, organism-based. On the set-up: dose 60 mg/kg.

Active and inactive are the calls of the source. The calls are words filed in the database; no cut-off is given here.

Turning to `Cc1cn([C@@H]2O[C@@]3(COP(O)(=S)O[C@H]4[C@H]5OC[C@]4(COP(O)(=S)O[C@@H]4[C@H](O)[C@@H](COP(O)(=S)O[C@H]6[C@@H](O)[C@H](n7cnc8c(=O)[nH]c(N)nc87)O[C@@H]6COP(O)(=S)O[C@H]6[C@@H](O)[C@H](n7ccc(N)nc7=O)O[C@@H]6COP(O)(=S)O[C@H]6[C@@H](O)[C@H](n7ccc(N)nc7=O)O[C@@H]6COP(O)(=S)O[C@H]6C[C@H](n7cc(C)c(=O)[nH]c7=O)O[C@@H]6COP(O)(=S)O[C@H]6[C@@H](O)[C@H](n7ccc(N)nc7=O)O[C@@H]6COP(O)(=S)O[C@H]6C[C@H](n7cc(C)c(=O)[nH]c7=O)O[C@@H]6COP(O)(=S)O[C@H]6[C@@H](O)[C@H](n7cnc8c(=O)[nH]c(N)nc87)O[C@@H]6COP(O)(=S)O[C@H]6[C@@H](O)[C@H](n7cnc8c(=O)[nH]c(N)nc87)O[C@@H]6COP(O)(=S)O[C@H]6[C@@H](O)[C@H](n7cnc8c(N)ncnc87)O[C@@H]6COP(O)(=S)O[C@H]6[C@H]7OC[C@]6(COP(O)(=S)O[C@H]6[C@H]8OC[C@]6(COP(O)(=S)O[C@H]6[C@H]9OC[C@]6(CO)O[C@H]9n6cc(C)c(=O)[nH]c6=O)O[C@H]8n6cc(C)c(=O)[nH]c6=O)O[C@H]7n6cc(C)c(=O)[nH]c6=O)O[C@H]4n4cnc6c(N)ncnc64)O[C@H]5n4cc(C)c(=O)[nH]c4=O)CO[C@@H]2[C@@H]3OP(O)(=S)OC[C@@]23CO[C@@H]([C@H](n4cnc5c(=O)[nH]c(N)nc54)O2)[C@@H]3O)c(=O)nc1N` (some centres not stated), the Activity result in series [1] is on record as “Non-toxic”. In addition, the outcome in series [2] and in series [3] was Active.
Regarding `Cc1cn([C@@H]2O[C@@]3(COP(O)(=S)O[C@H]4[C@H]5OC[C@]4(COP(O)(=S)O[C@@H]4[C@H](O)[C@@H](COP(O)(=S)O[C@H]6[C@@H](O)[C@H](n7cnc8c(=O)[nH]c(N)nc87)O[C@@H]6COP(O)(=S)O[C@H]6[C@@H](O)[C@H](n7ccc(N)nc7=O)O[C@@H]6COP(O)(=S)O[C@H]6[C@@H](O)[C@H](n7ccc(N)nc7=O)O[C@@H]6COP(O)(=S)O[C@H]6C[C@H](n7cc(C)c(=O)[nH]c7=O)O[C@@H]6COP(O)(=S)O[C@H]6[C@@H](O)[C@H](n7ccc(N)nc7=O)O[C@@H]6COP(O)(=S)O[C@H]6C[C@H](n7cc(C)c(=O)[nH]c7=O)O[C@@H]6COP(O)(=S)O[C@H]6[C@@H](O)[C@H](n7cnc8c(=O)[nH]c(N)nc87)O[C@@H]6COP(O)(=S)O[C@H]6[C@@H](O)[C@H](n7cnc8c(=O)[nH]c(N)nc87)O[C@@H]6COP(O)(=S)O[C@H]6[C@@H](O)[C@H](n7cnc8c(N)ncnc87)O[C@@H]6COP(O)(=S)O[C@H]6[C@H]7OC[C@]6(COP(O)(=S)O[C@H]6[C@H]8OC[C@]6(CO)O[C@H]8n6cc(C)c(=O)[nH]c6=O)O[C@H]7n6cc(C)c(=O)[nH]c6=O)O[C@H]4n4cnc6c(N)ncnc64)O[C@H]5n4cc(C)c(=O)[nH]c4=O)CO[C@@H]2[C@@H]3O)c(=O)nc1N` (some centres not stated), the Activity entry in series [1] is “Non-toxic”. Moreover, the outcome in series [2] and in series [3] was Active.
As for `Cc1cn([C@@H]2O[C@@]3(COP(O)(=S)O[C@H]4[C@H]5OC[C@]4(COP(O)(=S)O[C@@H]4[C@H](O)[C@@H](COP(O)(=S)O[C@H]6[C@@H](O)[C@H](n7cnc8c(=O)[nH]c(N)nc87)O[C@@H]6COP(O)(=S)O[C@H]6[C@@H](O)[C@H](n7ccc(N)nc7=O)O[C@@H]6COP(O)(=S)O[C@H]6[C@@H](O)[C@H](n7ccc(N)nc7=O)O[C@@H]6COP(O)(=S)O[C@H]6C[C@H](n7cc(C)c(=O)[nH]c7=O)O[C@@H]6COP(O)(=S)O[C@H]6[C@@H](O)[C@H](n7ccc(N)nc7=O)O[C@@H]6COP(O)(=S)O[C@H]6C[C@H](n7cc(C)c(=O)[nH]c7=O)O[C@@H]6COP(O)(=S)O[C@H]6[C@@H](O)[C@H](n7cnc8c(=O)[nH]c(N)nc87)O[C@@H]6COP(O)(=S)O[C@H]6[C@@H](O)[C@H](n7cnc8c(=O)[nH]c(N)nc87)O[C@@H]6COP(O)(=S)O[C@H]6[C@@H](O)[C@H](n7cnc8c(N)ncnc87)O[C@@H]6COP(O)(=S)O[C@H]6[C@H]7OC[C@]6(COP(O)(=S)O[C@H]6[C@H]8OC[C@]6(COP(O)(=S)O[C@H]6[C@H]9OC[C@]6(CO)O[C@H]9n6cc(C)c(=O)[nH]c6=O)O[C@H]8n6cc(C)c(=O)[nH]c6=O)O[C@H]7n6cc(C)c(=O)[nH]c6=O)O[C@H]4n4cnc6c(N)ncnc64)O[C@H]5n4cc(C)c(=O)[nH]c4=O)CO[C@@H]2[C@@H]3O)c(=O)nc1N` (some centres not stated), in series [1], the Activity entry is “Non-toxic”. Further, the result in series [2] and in series [3] was Active.
As for `COCCO[C@@H]1[C@H](O)[C@@H](COP(O)(=S)O[C@H]2[C@@H](OCCOC)[C@H](n3cc(C)c(N)nc3=O)O[C@@H]2COP(O)(=S)O[C@H]2[C@@H](OCCOC)[C@H](n3cc(C)c(=O)[nH]c3=O)O[C@@H]2COP(O)(=S)O[C@H]2[C@@H](OCCOC)[C@H](n3cc(C)c(=O)[nH]c3=O)O[C@@H]2COP(O)(=S)O[C@H]2[C@@H](OCCOC)[C@H](n3cc(C)c(N)nc3=O)O[C@@H]2COP(O)(=S)O[C@H]2[C@@H](O)[C@H](n3cc(C)c(N)nc3=O)O[C@@H]2COP(O)(=S)O[C@H]2[C@@H](O)[C@H](n3cc(C)c(N)nc3=O)O[C@@H]2COP(O)(=S)O[C@H]2C[C@H](n3cc(C)c(=O)[nH]c3=O)O[C@@H]2COP(O)(=S)O[C@H]2[C@@H](O)[C@H](n3cnc4c(=O)[nH]c(N)nc43)O[C@@H]2COP(O)(=S)O[C@H]2[C@@H](O)[C@H](n3cnc4c(N)ncnc43)O[C@@H]2COP(O)(=S)O[C@@H]2[C@H](O)[C@@H](COP(O)(=S)O[C@H]3[C@@H](O)[C@H](n4cnc5c(=O)[nH]c(N)nc54)O[C@@H]3COP(O)(=S)O[C@H]3[C@@H](O)[C@H](n4cnc5c(=O)[nH]c(N)nc54)O[C@@H]3COP(O)(=S)O[C@H]3C[C@H](n4cc(C)c(=O)[nH]c4=O)O[C@@H]3COP(O)(=S)O[C@H]3C[C@H](n4cc(C)c(=O)[nH]c4=O)O[C@@H]3COP(O)(=S)O[C@H]3[C@@H](OCCOC)[C@H](n4cc(C)c(=O)[nH]c4=O)O[C@@H]3COP(O)(=S)O[C@H]3[C@@H](OCCOC)[C@H](n4cc(C)c(N)nc4=O)O[C@@H]3COP(O)(=S)O[C@H]3[C@@H](OCCOC)[C@H](n4ccc(N)nc4=O)O[C@@H]3COP(O)(=S)O[C@H]3[C@@H](OCCOC)[C@H](n4cc(C)c(N)nc4=O)O[C@@H]3COP(O)(=S)O[C@H]3[C@@H](OCCOC)[C@H](n4cc(C)c(N)nc4=O)O[C@@H]3CO)O[C@H]2n2cnc3c(N)ncnc32)O[C@H]1n1cc(C)c(N)nc1=O` (some centres not stated), in series [1], the Activity result is recorded as “Non-toxic”. Also, the outcome in series [2] and in series [3] was Active.
